Each block holds one compound with its values, some of them ahead of it.
Experiments:
[1] = system: FR-positive KB tumors; test: Tissue distribution, KB tumor model (Example 16, Table 5); assay type: in vivo, nude mice; settings: for accumulation in FR-positive KB tumors and kidneys on co-administration of free folate: about 20-fold excess of free folate; for Blood / Heart / Kidney (one) / Liver & Gall Bladder / Lungs / Muscle / Spleen / Stomach, Intestines & Contents / Tumor: 99mTc-labelled conjugate, 4 hours post i.v.
Protocol: The protocols used in this example are similar to those described in Example 11. The ability of ^99mTc-EC11 (peptide-A1), ^99mTc-EC13 (peptide-A3), and ^99mTc-EC14 (peptide-A2) to target tumors in vivo was assessed using the FR-positive KB tumor model.
FR-positive KB tumor cells (0.25×10^6 per animal) were inoculated subcutaneously in the intracapsular region. Fourteen days after tumor cell inoculation, the animals (n=4/group) were injected intravenously with ^99mTc-EC11, ^99mTc-EC13, or ^99mTc-EC14 at the doses (about 12 μg/kg) of the conjugates shown in Table 5 below. Stocks of ^99mTc-EC11, ^99mTc-EC13, and ^99mTc-EC14 solutions were prepared on the day of use as described above. About a 20-fold excess of free folate (about 200 μg/kg) was co-administered to control animals (n=4/group). […] Selected tissues were removed, weighed, and counted in an automatic gamma counter to determine ^99mTc distribution. Uptake of the radiopharmaceutical in terms of percentage injected dose of wet weight tissue (% ID/g) was calculated by reference to standards prepared from dilutions of the injected preparation.

[2] = system: FR-positive M109 tumors; test: Tissue distribution, subcutaneous M109 tumors (Example 11)
Protocol: The ability of ^99mTc-EC20 to target tumors in vivo was assessed using a FR-positive M109 model.
Four to five week-old mice (Balb/c strain) were purchased from Harlan Sprague Dawley, Inc. (Indianapolis, Ind.) and were maintained on a folate-free diet for a total of three weeks prior to the experiment. Syngeneic, FR-positive M109 tumor cells (1×10^6 per animal) were inoculated in the subcutis of the right axilla two weeks prior to the experiment.
Animals received an approximate 40 μmol/kg i.v. dose of test article in 100 μL volume via a lateral tail vein during brief diethyl ether anesthesia. Four hours post-injection, animals were sacrificed by CO2 asphyxiation, and dissected. Selected tissues were removed, weighed, and counted to determine ^99mTc distribution. CPM values were decay-corrected, and results were tabulated as % injected dose per gram of wet weight tissue.

[3] = folic acid dihydrate co-injected (about 200 μg/kg)
[4] = folic acid dihydrate co-injected
[5] = 4 hr post i.v., + Folic acid (100 equivalents)
[6] = 4 hr post intravenous injection

Compound: Nc1nc2ncc(CNc3ccc(C(=O)N[C@@H](CCC(=O)N[C@@H](CCC(=O)NC[C@@H]4[NH2+][99Tc-]56(=[O])[S]C[C@@H](C(=O)O)[N]5C(=O)[C@H](CC(=O)O)[N]6C4=O)C(=O)O)C(=O)O)cc3)nc2c(=O)[nH]1 [^99mTc-EC11]
accumulation in FR-positive KB tumors and kidneys on co-administration of free folate [1]: blocked

Compound: Nc1nc2ncc(CNc3ccc(C(=O)N[C@@H](CCC(=O)NC[C@@H]4[NH2+][99Tc-]56(=[O])[S]C[C@@H](C(=O)O)[N]5C(=O)[C@H](CO)[N]6C4=O)C(=O)O)cc3)nc2c(=O)[nH]1 [^99mTc-EC13]
accumulation in FR-positive KB tumors and kidneys on co-administration of free folate [1]: blocked

Compound: Nc1nc2ncc(CNc3ccc(C(=O)N[C@@H](CCC(=O)NCCNC(=O)CN(CCN(CCN(CC(=O)[O-])CC(=O)[O-])CC(=O)[O-])CC(=O)[O-])C(=O)O)cc3)nc2c(=O)[nH]1.[111In] [^111In-DTPA-Folate, reference compound]
Blood [2, 5]: 0.09 ± 0.04 % Injected Dose per Gram Tissue
Heart [2, 5]: 0.06 ± 0.02 % Injected Dose per Gram Tissue
Intestine [2, 5]: 0.82 ± 0.14 % Injected Dose per Gram Tissue
Kidney [2, 5]: 3.14 ± 1.96 % Injected Dose per Gram Tissue
Liver [2, 5]: 0.81 ± 0.03 % Injected Dose per Gram Tissue
Lung [2, 5]: 0.09 ± 0.2 % Injected Dose per Gram Tissue
Muscle [2, 5]: 0.05 ± 0.04 % Injected Dose per Gram Tissue
Spleen [2, 5]: 1.46 ± 0.73 % Injected Dose per Gram Tissue
Stomach [2, 5]: 0.25 ± 0.20 % Injected Dose per Gram Tissue
Tumor [2, 5]: 0.46 ± 0.42 % Injected Dose per Gram Tissue
Tumor/Blood [2, 5]: 5.00 ± 4.60
Blood [2, 6]: 0.21 ± 0.10 % Injected Dose per Gram Tissue
Heart [2, 6]: 2.57 ± 0.82 % Injected Dose per Gram Tissue
Intestine [2, 6]: 1.87 ± 0.69 % Injected Dose per Gram Tissue
Kidney [2, 6]: 191 ± 79.2 % Injected Dose per Gram Tissue
Liver [2, 6]: 5.21 ± 2.63 % Injected Dose per Gram Tissue
Lung [2, 6]: 1.72 ± 0.61 % Injected Dose per Gram Tissue
Muscle [2, 6]: 1.19 ± 0.48 % Injected Dose per Gram Tissue
Spleen [2, 6]: 3.30 ± 2.33 % Injected Dose per Gram Tissue
Stomach [2, 6]: 1.62 ± 0.65 % Injected Dose per Gram Tissue
Tumor/Blood [2, 6]: 102 ± 43.4

Compound: benzoyl-D-Glu-n-Glu-βDpr-Asp-Cys [^99mTc-EC28, reference compound]
accumulation in the kidneys and tumor ([2]; 4 hr post i.v.): failed to appreciably accumulate in the kidneys and tumor
Blood [2, 6]: 0.06 ± 0.04 % Injected Dose per Gram Tissue
Heart [2, 6]: 0.03 ± 0.01 % Injected Dose per Gram Tissue
Intestine [2, 6]: 0.47 ± 0.19 % Injected Dose per Gram Tissue
Kidney [2, 6]: 0.62 ± 0.14 % Injected Dose per Gram Tissue
Liver [2, 6]: 0.50 ± 0.26 % Injected Dose per Gram Tissue
Lung [2, 6]: 0.05 ± 0.01 % Injected Dose per Gram Tissue
Muscle [2, 6]: 0.02 ± 0.01 % Injected Dose per Gram Tissue
Spleen [2, 6]: 0.60 ± 0.38 % Injected Dose per Gram Tissue
Stomach [2, 6]: 0.21 ± 0.19 % Injected Dose per Gram Tissue
Tumor/Blood [2, 6]: 2.00 ± 0.50
Tumor ([2]; 4 hr post intravenous injection, M109 tumor): 0.11 ± 0.06 % Injected Dose per Gram Tissue

More lines, main results first:

Tumor [1, 3]: 2.0 ± 0.5 Percentage of Injected 99mTc D
Heart ([1]; no folic acid): 3.0 ± 0.5 Percentage of Injected 99mTc D
Liver & Gall Bladder ([1]; no folic acid): 4.5 ± 1.0 Percentage of Injected 99mTc D
Lungs ([1]; no folic acid): 1.6 ± 0.3 Percentage of Injected 99mTc D
Muscle ([1]; no folic acid): 2.4 ± 0.4 Percentage of Injected 99mTc D
Stomach, Intestines & Contents ([1]; no folic acid): 1.4 ± 0.1 Percentage of Injected 99mTc D
Tumor/Blood [1, 4]: 17.0 ± 4.5
Tumor/Kidney [1, 4]: 0.10 ± 0.01
Tumor/Liver [1, 4]: 3.0 ± 0.6
Tumor/Muscle [1, 4]: 7.7 ± 1.7
Tumor/Blood ([1]; no folic acid): 29.3 ± 5.2
Tumor/Kidney ([1]; no folic acid): 0.13 ± 0.03
Tumor/Liver ([1]; no folic acid): 1.3 ± 0.3
Tumor/Muscle ([1]; no folic acid): 2.4 ± 0.6
Compound: Nc1nc2ncc(CNc3ccc(C(=O)N[C@@H](CCC(=O)N[C@H](CCC(=O)NC[C@H](N)C(=O)N[C@@H](CC(=O)O)C(=O)N[C@@H](CS)C(=O)O)C(=O)O)C(=O)O)cc3)nc2c(=O)[nH]1 [EC14, Pte-D-Glu-D-Glu-βDpr-Asp-Cys]
Blood [1, 3]: 0.12 ± 0.02 Percentage of Injected 99mTc D
Heart [1, 3]: 0.24 ± 0.01 Percentage of Injected 99mTc D
Kidney (one) [1, 3]: 20.6 ± 2.4 Percentage of Injected 99mTc D
Liver & Gall Bladder [1, 3]: 0.66 ± 0.07 Percentage of Injected 99mTc D
Lungs [1, 3]: 0.24 ± 0.02 Percentage of Injected 99mTc D
Muscle [1, 3]: 0.26 ± 0.02 Percentage of Injected 99mTc D
Spleen [1, 3]: 0.15 ± 0.01 Percentage of Injected 99mTc D
Stomach, Intestines & Contents [1, 3]: 0.50 ± 0.10 Percentage of Injected 99mTc D
Blood ([1]; no folic acid): 0.19 ± 0.02 Percentage of Injected 99mTc D
Kidney (one) ([1]; no folic acid): 44.2 ± 6.4 Percentage of Injected 99mTc D
Spleen ([1]; no folic acid): 0.41 ± 0.06 Percentage of Injected 99mTc D
Tumor ([1]; no folic acid, KB tumor): 5.57 ± 0.76 Percentage of Injected 99mTc D

Liver & Gall Bladder [1, 3]: 1.6 ± 0.1 Percentage of Injected 99mTc D
Stomach, Intestines & Contents [1, 3]: 1.1 ± 0.3 Percentage of Injected 99mTc D
Heart ([1]; no folic acid): 2.5 ± 0.3 Percentage of Injected 99mTc D
Liver & Gall Bladder ([1]; no folic acid): 5.4 ± 1.4 Percentage of Injected 99mTc D
Lungs ([1]; no folic acid): 1.2 ± 0.2 Percentage of Injected 99mTc D
Muscle ([1]; no folic acid): 1.8 ± 0.1 Percentage of Injected 99mTc D
Stomach, Intestines & Contents ([1]; no folic acid): 1.4 ± 0.1 Percentage of Injected 99mTc D
Tumor/Blood [1, 4]: 5.9 ± 0.9
Tumor/Kidney [1, 4]: 0.027 ± 0.005
Tumor/Liver [1, 4]: 0.94 ± 0.09
Tumor/Muscle [1, 4]: 3.9 ± 0.08
Tumor/Blood ([1]; no folic acid): 13.7 ± 2.1
Tumor/Kidney ([1]; no folic acid): 0.043 ± 0.005
Tumor/Liver ([1]; no folic acid): 0.57 ± 0.14
Tumor/Muscle ([1]; no folic acid): 1.6 ± 0.3
Compound: Nc1nc2ncc(CNc3ccc(C(=O)N[C@@H](CCC(=O)N[C@@H](CCC(=O)NC[C@H](N)C(=O)N[C@@H](CC(=O)O)C(=O)N[C@@H](CS)C(=O)O)C(=O)O)C(=O)O)cc3)nc2c(=O)[nH]1 [EC11]
Blood [1, 3]: 0.25 ± 0.01 Percentage of Injected 99mTc D
Heart [1, 3]: 0.36 ± 0.03 Percentage of Injected 99mTc D
Kidney (one) [1, 3]: 55.5 ± 2.3 Percentage of Injected 99mTc D
Lungs [1, 3]: 0.35 ± 0.03 Percentage of Injected 99mTc D
Muscle [1, 3]: 0.38 ± 0.06 Percentage of Injected 99mTc D
Spleen [1, 3]: 0.23 ± 0.01 Percentage of Injected 99mTc D
Tumor [1, 3]: 1.47 ± 0.24 Percentage of Injected 99mTc D
Blood ([1]; no folic acid): 0.21 ± 0.01 Percentage of Injected 99mTc D
Kidney (one) ([1]; no folic acid): 67.8 ± 6.9 Percentage of Injected 99mTc D
Spleen ([1]; no folic acid): 0.38 ± 0.03 Percentage of Injected 99mTc D
Tumor ([1]; no folic acid, KB tumor): 2.95 ± 0.57 Percentage of Injected 99mTc D

Stomach, Intestines & Contents [1, 3]: 3.7 ± 0.7 Percentage of Injected 99mTc D
Heart ([1]; no folic acid): 1.6 ± 0.1 Percentage of Injected 99mTc D
Liver & Gall Bladder ([1]; no folic acid): 3.5 ± 0.7 Percentage of Injected 99mTc D
Lungs ([1]; no folic acid): 1.1 ± 0.1 Percentage of Injected 99mTc D
Muscle ([1]; no folic acid): 1.7 ± 0.2 Percentage of Injected 99mTc D
Stomach, Intestines & Contents ([1]; no folic acid): 2.5 ± 0.2 Percentage of Injected 99mTc D
Tumor/Blood [1, 4]: 10.2 ± 1.5.^
Tumor/Kidney [1, 4]: 0.058 ± 0.010
Tumor/Liver [1, 4]: 2.6 ± 0.3
Tumor/Muscle [1, 4]: 8.2 ± 2.0
Tumor/Blood ([1]; no folic acid): 22.5 ± 1.4
Tumor/Kidney ([1]; no folic acid): 0.10 ± 0.01
Tumor/Liver ([1]; no folic acid): 1.6 ± 0.2
Tumor/Muscle ([1]; no folic acid): 3.3 ± 0.3
Compound: Nc1nc2ncc(CNc3ccc(C(=O)N[C@@H](CCC(=O)NC[C@H](N)C(=O)N[C@@H](CO)C(=O)N[C@@H](CS)C(=O)O)C(=O)O)cc3)nc2c(=O)[nH]1 [EC13]
Blood [1, 3]: 0.16 ± 0.02 Percentage of Injected 99mTc D
Heart [1, 3]: 0.20 ± 0.03 Percentage of Injected 99mTc D
Kidney (one) [1, 3]: 29.1 ± 2.2 Percentage of Injected 99mTc D
Liver & Gall Bladder [1, 3]: 0.65 ± 0.04 Percentage of Injected 99mTc D
Lungs [1, 3]: 0.23 ± 0.02 Percentage of Injected 99mTc D
Muscle [1, 3]: 0.21 ± 0.03 Percentage of Injected 99mTc D
Spleen [1, 3]: 0.15 ± 0.02 Percentage of Injected 99mTc D
Tumor [1, 3]: 1.67 ± 0.24 Percentage of Injected 99mTc D
Blood ([1]; no folic acid): 0.25 ± 0.03 Percentage of Injected 99mTc D
Kidney (one) ([1]; no folic acid): 54.5 ± 2.4 Percentage of Injected 99mTc D
Spleen ([1]; no folic acid): 0.39 ± 0.06 Percentage of Injected 99mTc D
Tumor ([1]; no folic acid, KB tumor): 5.46 ± 0.45 Percentage of Injected 99mTc D
